Experimental data reported in PubChem BioAssay (NCI).
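1) Cells in 96-well plates. 2) Compound, 48 h, 5 concentrations. 3) Linear interpolation between surrounding doses. 4) Unreached endpoint = highest concentration. Abbreviation: GI50, concentration required for 50% inhibition of growth. TGI: total growth inhibition.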

What was measured:
Assay in all cases: NCI-60 cell line screen, 48 h
[1] = test system: DU-145 prostate
[2] = test system: 786-0 renal
[3] = test system: HOP-92 NSCLC
[4] = test system: SR leukemia
[5] = test system: OVCAR-8 ovarian
[6] = test system: SW-620 colon
[7] = test system: OVCAR-4 ovarian
[8] = test system: M14 melanoma
[9] = test system: CAKI-1 renal
[10] = test system: NCI-H460 lung
[11] = test system: A498 renal
[12] = test system: HCT-116 colon
[13] = test system: RPMI-8226 leukemia
[14] = test system: K-562 leukemia
[15] = test system: OVCAR-3 ovarian
[16] = test system: MDA-MB-435
[17] = test system: UO-31 renal
[18] = test system: UACC-62 melanoma
[19] = test system: CCRF-CEM leukemia
[20] = test system: RXF 393 renal
[21] = test system: HS 578T breast
[22] = test system: SK-MEL-2 melanoma
[23] = test system: SK-OV-3 ovarian
[24] = test system: TK-10 renal
[25] = test system: SNB-75 CNS
[26] = test system: SF-539 CNS
[27] = test system: SF-268 CNS
[28] = test system: ACHN renal
[29] = test system: NCI-H522 lung

Structure (SMILES): CN(C)c1ccc(-c2ccc(-c3ccc(C(=N)N)c(F)c3)s2)cc1
- GI50 [1]: 1650 nM
- TGI [1]: 3.18 µM
- GI50 [2]: 1870 nM
- TGI [2]: 3.49 µM
- GI50 [3]: 1400 nM
- TGI [3]: 3.03 µM
- GI50 [4]: 244 nM
- TGI [4]: 692 nM
- GI50 [5]: 2230 nM
- TGI [5]: 5.38 µM
- GI50 [6]: 1480 nM
- TGI [6]: 3.07 µM
- GI50 [7]: 1870 nM
- TGI [7]: 3.5 µM
- GI50 [8]: 1740 nM
- TGI [8]: 3.39 µM
- GI50 [9]: 1590 nM
- TGI [9]: 3110 nM
- GI50 [10]: 1770 nM
- TGI [10]: 3.37 µM
- GI50 [11]: 0.0149 µM
- TGI [11]: 1.15 µM
- GI50 [12]: 1170 nM
- TGI [12]: 2600 nM
- GI50 [13]: 1910 nM
- TGI [13]: 4.48 µM
- GI50 [14]: 258 nM
- TGI [14]: 699 nM
- GI50 [15]: 1940 nM
- TGI [15]: 3.59 µM
- GI50 [16]: 1650 nM
- TGI [16]: 3.17 µM
- GI50 [17]: 1540 nM
- TGI [17]: 3050 nM
- GI50 [18]: 1830 nM
- TGI [18]: 3.66 µM
- GI50 [19]: 329 nM
- TGI [19]: 1260 nM

Structure (SMILES): Cc1ccc(S(=O)(=O)OC[C@]23CCC(C)(C)C[C@H]2C2=CC[C@@H]4[C@@]5(C)CCCNC(C)(C)[C@@H]5CC[C@@]4(C)[C@]2(C)CC3)cc1
- GI50 [20]: 1380 nM
- TGI [20]: 2780 nM
- GI50 [1]: 1790 nM
- TGI [1]: 3.37 µM
- GI50 [21]: 1820 nM
- TGI [21]: 4.08 µM
- GI50 [22]: 2190 nM
- TGI [22]: 4.83 µM
- GI50 [23]: 1760 nM
- TGI [23]: 3.26 µM
- GI50 [24]: 1770 nM
- TGI [24]: 3.33 µM
- GI50 [9]: 1450 nM
- TGI [9]: 2820 nM
- GI50 [25]: 1480 nM
- TGI [25]: 2940 nM
- GI50 [11]: 5.99 µM
- TGI [11]: 21.4 µM
- GI50 [26]: 1710 nM
- TGI [26]: 3.15 µM
- GI50 [27]: 2320 nM
- TGI [27]: 8.44 µM
- GI50 [28]: 1690 nM
- TGI [28]: 3.07 µM
- GI50 [29]: 1690 nM
- TGI [29]: 3.38 µM
- GI50 [17]: 1290 nM
- TGI [17]: 2680 nM
